Data published in ChEMBL document CHEMBL1136116 (Bioorg Med Chem Lett, 2003).

Tests used:
[1] = biological target: Cyclin-dependent kinase 2/cyclin E (Homo sapiens, UniProt P24941); assay: Inhibitory activity against Cyclin-dependent kinase 2-cyclin E; assay type: protein-complex assay
[2] = biological target: Cyclin-dependent kinase 1/cyclin B (Homo sapiens, UniProt P06493); assay: Inhibition of Cyclin-dependent kinase 1-cyclin B; assay type: protein-complex assay
[3] = biological target: Cyclin-dependent kinase 4/cyclin D (Homo sapiens, UniProt P11802); assay: Inhibition of CDK4-Cyclin D; assay type: protein-complex assay
[4] = test system: A2780; assay: Cytotoxic effect on ovarian cancer cell line (A2780); assay type: functional, cell-based; conditions: Homo sapiens

Structure (SMILES) | IC50 [1] | IC50 [2] | IC50 [3] | IC50 [4]
CCCCOc1c(C(=O)c2nccs2)cnc2[nH]ncc12 | 210 nM | 450 nM |  | 
CCCCOc1c(C(=O)c2c(F)cc(C)cc2F)c[nH]c2nncc1-2 | 9 nM | 6 nM | 230 nM | 760 nM
CCCCOc1c(C(C)=O)cnc2[nH]ncc12 | > 1000 nM |  |  | 
CCCCOc1c(C(=O)c2c(F)cc(Br)cc2F)cnc2[nH]ncc12 | 20 nM | 17 nM | 370 nM | 
CCCCOc1c(C(=O)OC)cnc2[nH]ncc12 | > 10000 nM |  |  | 
CCCCOc1c(C(=O)NCC)cnc2[nH]ncc12 | 8100 nM |  |  | 
CCCCOc1c(C(=O)c2c(F)cccc2F)cnc2[nH]ncc12 | 64 nM | 32 nM | 21000 nM | 
CCCCOc1c(C(=O)c2c(F)cc(Cl)cc2F)cnc2[nH]ncc12 | 27 nM | 13 nM | 310 nM | 
CCCCOc1c(C(=O)C2CC2)cnc2[nH]ncc12 | 2700 nM |  |  | 
CCCCOc1c(C(=O)c2c(F)cc(OC)cc2F)cnc2[nH]ncc12 | 22 nM | 7 nM | 230 nM | 
CCCCOc1c(C(=O)c2c(C)cc(C)cc2C)cnc2[nH]ncc12 | > 1000 nM |  |  | 

The next lines start with results.

IC50 [1] | IC50 [2] | IC50 [3] | Structure (SMILES) | IC50 [4]
> 1000 nM |  |  | CCCCOc1c(C(=O)Cc2ccccc2)cnc2[nH]ncc12 | 
210 nM |  |  | CCCCOc1c(C(=O)c2ccc(C)cc2)cnc2[nH]ncc12 | 
180 nM | 280 nM |  | CCCCOc1c(C(=O)c2ccco2)cnc2[nH]ncc12 | 
660 nM |  |  | CCCCOc1c(C(=O)c2cccc(C)c2)cnc2[nH]ncc12 | 
520 nM |  |  | CCCCOc1c(S(=O)(=O)c2ccccc2)cnc2[nH]ncc12 | 
730 nM | 410 nM |  | CCCCOc1c(C(=O)c2ccccc2C)cnc2[nH]ncc12 | 
340 nM |  |  | CCCCOc1c([S+]([O-])c2ccccc2)cnc2[nH]ncc12 (stereo not given) | 
19000 nM |  |  | CCCCOc1c(C(=O)Nc2ccccc2)cnc2[nH]ncc12 | 
2400 nM |  |  | CCCCOc1c(C(=O)c2cccnc2)cnc2[nH]ncc12 | 
 |  | > 25000 nM | CCCCOc1c(C(=O)c2ccccc2)cnc2[nH]ncc12 [SQ-67563] | 
36 nM | 360 nM | 24000 nM | CCCCOc1c(C(=O)c2ccccc2F)cnc2[nH]ncc12 | 
200 nM | 230 nM |  | CCCCOc1c(C(=O)c2cccs2)cnc2[nH]ncc12 | 
